Measured values reported in paper PMC4467156, “A new chemical inhibitor of angiogenesis and tumorigenesis that targets the VEGF signaling pathway upstream of Ras” (Oncotarget, 2015).

Experiments:
MEK1 = MEK1 (Homo sapiens, UniProt Q02750); assay: In vitro kinase assay MEK1; assay type: biochemical; conditions: concentrations up to 50 μM
Description: (§1) We first wondered whether COB223 required to be internalized to exert its biological effect. For this, we synthesized a covalent complex between BSA and COB223 and purified it. […] In vitro kinase assays were performed with a panel of purified protein-kinases involved in mitogenic signaling, including VEGFR2, FGFR1, FGFR2, PDGFRß, Met, Raf, MEK1, ERK1, ERK2, PKCα, PKCβI, PKCβII, PKCζ as indicated in Table 2. […] We then analyzed the effect of COB223 on VEGF-induced phosphorylations of VEGFR2, MEK and ERK1/2 (Figure 9). […] (Figure 9A, 9B). […] It was also specific of the p42/p44 MAP kinase pathway as activation of p38 MAP kinase phosphorylation in HUVEC cells by VEGF or serum was unaffected by COB223 (data not shown). The activation of src phosphorylation by VEGF in HUVECs was also unaffected by COB223 (data not shown).

3T3 cells = assay: Cell viability WST-1, 3T3; assay type: cell-based; conditions: confluent 3T3, 24 h at 37°C
Description: (§2) Once they had reached confluency, cells were kept for 24 hours in medium supplemented with 0.5% FCS (LLC/2 and 3T3 cells) or 2.5% FCS (HUVEC and HMVEC-d cells), in the presence of COB223 at different concentrations. WST-1 assay (Roche Diagnostic, Meylan, France) was then performed according to the manufacturer's instructions.

[1] = system: p38 MAP kinase phosphorylation; assay: p38 MAP kinase phosphorylation in HUVEC; assay type: cell-based, human; conditions: data not shown
PKCβI = PKCβI (Homo sapiens, UniProt P05771); assay: In vitro kinase assay PKCβI; assay type: biochemical; conditions: concentrations up to 50 μM
Description: as §1

Met = Met (Homo sapiens, UniProt P08581); assay: In vitro kinase assay Met; assay type: biochemical; conditions: concentrations up to 50 μM
Description: as §1

HUVEC cells [2] = assay: 3H-thymidine incorporation, HUVEC; assay type: cell-based, human; conditions: HUVEC, 24 h
Description: (§3) Cells were treated with molecules in complete medium. After 22 h, 1 μCi per well H^3 thymidine was added for 2 hours. Cells are then fixed by 10% trichloroacetic acid and harvested with 0.2N NaOH, 1% SDS. Radioactivity was measured in a beta counter.

ERK2 = ERK2 (Homo sapiens, UniProt P28482); assay: In vitro kinase assay ERK2; assay type: biochemical; conditions: concentrations up to 50 μM
Description: as §1

LLC/2 cells = assay: Cell viability WST-1, LLC/2; assay type: cell-based; conditions: confluent LLC/2, 24 h at 37°C
Description: as §2

PKC ζ = PKC ζ (Homo sapiens, UniProt Q05513); assay: In vitro kinase assay PKC ζ; assay type: biochemical; conditions: concentrations up to 50 μM
Description: as §1

LLC/2 tumor = assay: Mouse LLC/2 tumor model; assay type: in vivo
Description: (§4) We chose this model because of its rapid growth in syngenic mice and its strong dependence on angiogenesis. LLC/2 cells (10^6 in 50 μL medium) were subcutaneously injected into the right flank of […] mice. Seven days after tumor inoculation, mice were given an intraperitoneal (i.p.) injection of either solvent (1.7% DMSO) or COB223 every other day. Tumor size was measured with calipers, and the volume was calculated according to the formula (L*w^2)/2 where L and […] stand for length and width respectively. All mice were killed 21 days after tumor grafting.
Tumors collected after animal sacrifice were split into two parts and fixed either in 4% paraformaldehyde (v/v) or in formalin fixative for 24 h at 4°C and embedded in paraffin and then cut into 7 μm sections. Sections were stained using specific antibodies and the avidin–biotin immunoperoxidase detection method. Endogenous peroxidase activity was quenched by pretreatment with 3% (v/v) hydrogen peroxide in methanol for 20 min. For endothelial immunohistochemistry detection, CD31 antibody (MEC13.3, BD Pharmingen) was incubated for 2 h at room temperature. The tissue sections were subsequently washed three times with PBS and incubated with biotinylated rabbit anti-rat IgG (1:250 dilution in blocking solution; Sigma-Aldrich, Saint-Quentin Fallavier, France) for 1 h at room temperature. After three PBS washes, the slides were incubated with an avidin: biotin complex (Vectastain ABC kit; Vector Laboratories, Burlingame, CA) for 45 minutes. After a final PBS wash, the immunoreactive proteins were visualized after the addition of 3,3′-diaminobenzidine (Dako, Trappes, France) for 2 min and then counterstained with hematoxylin. Control sections were treated without primary antibody.

3T3-GFP cells = assay: Scratch wound closure assay, 3T3-GFP; assay type: cell-based; conditions: wound closure after 24 h, 10% FCS, tested 3.125 μM to 100 μM
Excerpt: Using this assay, we screened the academic library of the University of Grenoble, which is composed of 1360 original molecules. Setting the threshold of significant responses at 75% of the maximal inhibition, we identified 80 inhibitory molecules. At this stage, we reasoned that molecules that would affect the cytoskeleton dynamics or the adhesion properties of any cell type would be positive in this assay but would not represent good candidates for further development. We thus decided to perform a secondary counterscreen of the first 80 selected compounds on GFP-expressing 3T3 fibroblasts (3T3-GFP) using the same scratch assay. We then focused our interest on the 5 molecules that inhibited more strongly HMEC-GFP than 3T3-GFP wound healing. […] We synthesized a series of 30 analogs and tested them at various concentrations both on HMEC-GFP and 3T3-GFP cells. […] Dansyl and naphthalimide aromatic groups, found in COB223 and COB227 respectively, appeared very efficient. The presence of the diaminomethyl group on dansyl is critical for the activity of COB223 as shown by the lower efficiency of COB235 (IC50 is 8 times higher than that of COB223). COB223 and COB227 contain a tert-butyloxycarbonyl function (BOC group) as a second hydrophobic group. Replacement of BOC by an amino group decreased the efficiency and the specificity (compare 05-102-L-B09 vs 05-06-L-D03, or COB227 vs COB228).
Confluent cell monolayers were wounded with a plastic pipet tip, washed gently with phosphate buffer saline (PBS) and treated with complete media containing molecules, as indicated. Cells were placed at 37°C into the incubator and photographed at indicated times. Quantitation of closure of the monolayer was performed using the NIH Image J program (http://rsbweb.nih.gov/ij/). Results are expressed as percentage of wound closure at t = 24 h as compared to the initial wound at t = 0 h.

HUVEC cells [3] = assay: Binding of 125I-VEGF-A121 to HUVEC cells; set-up: species or system human; conditions: data not shown
[4] = Tolerance in treated LLC/2 tumor-bearing mice; assay type: in vivo, mouse; conditions: two week-long treatment with up to 16 mg/kg i.p.
Description: as §4

HMVECd cells = assay: 3H-thymidine incorporation, HMVECd; assay type: cell-based, human; conditions: 24 h
Description: as §3

src phosphorylation = src phosphorylation in HUVECs; assay type: cell-based, human; conditions: data not shown
[5] = non-necrotic part of treated tumors

MEK1, sequence (Q02750 whole entry, species assumed): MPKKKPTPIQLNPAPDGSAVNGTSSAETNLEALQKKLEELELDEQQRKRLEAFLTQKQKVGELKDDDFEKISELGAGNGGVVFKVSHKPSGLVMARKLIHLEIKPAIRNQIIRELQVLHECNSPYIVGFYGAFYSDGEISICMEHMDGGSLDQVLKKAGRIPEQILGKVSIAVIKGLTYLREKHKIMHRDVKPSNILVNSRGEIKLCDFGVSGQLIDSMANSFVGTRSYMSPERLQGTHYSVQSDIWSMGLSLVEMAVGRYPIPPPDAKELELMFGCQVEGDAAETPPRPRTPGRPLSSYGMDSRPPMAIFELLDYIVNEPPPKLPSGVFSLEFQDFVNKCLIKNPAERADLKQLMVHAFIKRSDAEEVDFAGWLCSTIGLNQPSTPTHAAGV
ERK2, sequence (P28482 whole entry, species assumed): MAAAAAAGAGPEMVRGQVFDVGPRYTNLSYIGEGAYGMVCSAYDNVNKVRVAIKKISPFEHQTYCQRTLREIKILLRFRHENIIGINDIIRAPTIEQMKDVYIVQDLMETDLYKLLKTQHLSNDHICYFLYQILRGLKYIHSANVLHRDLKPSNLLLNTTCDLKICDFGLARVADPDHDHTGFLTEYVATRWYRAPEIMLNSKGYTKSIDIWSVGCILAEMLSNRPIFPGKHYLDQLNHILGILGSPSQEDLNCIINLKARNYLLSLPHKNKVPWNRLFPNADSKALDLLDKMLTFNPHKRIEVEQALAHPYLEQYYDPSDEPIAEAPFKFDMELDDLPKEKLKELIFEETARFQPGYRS
PKC ζ, sequence (Q05513 whole entry): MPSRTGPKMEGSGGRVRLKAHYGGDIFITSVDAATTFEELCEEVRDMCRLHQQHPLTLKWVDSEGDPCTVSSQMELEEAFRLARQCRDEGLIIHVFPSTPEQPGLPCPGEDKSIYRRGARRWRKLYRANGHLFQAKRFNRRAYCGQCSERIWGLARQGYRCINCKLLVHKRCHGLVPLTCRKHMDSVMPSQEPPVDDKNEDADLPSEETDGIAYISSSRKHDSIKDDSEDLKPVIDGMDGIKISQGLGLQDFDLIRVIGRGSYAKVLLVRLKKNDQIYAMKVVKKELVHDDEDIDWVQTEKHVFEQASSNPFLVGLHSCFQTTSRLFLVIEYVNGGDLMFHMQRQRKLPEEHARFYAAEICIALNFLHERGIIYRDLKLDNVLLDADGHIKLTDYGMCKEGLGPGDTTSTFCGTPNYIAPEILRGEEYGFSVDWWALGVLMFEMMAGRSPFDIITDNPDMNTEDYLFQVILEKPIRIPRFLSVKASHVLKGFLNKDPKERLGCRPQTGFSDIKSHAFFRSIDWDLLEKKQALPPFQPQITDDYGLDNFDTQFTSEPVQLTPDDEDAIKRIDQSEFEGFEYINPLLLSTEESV
Met, sequence (P08581 25-1390): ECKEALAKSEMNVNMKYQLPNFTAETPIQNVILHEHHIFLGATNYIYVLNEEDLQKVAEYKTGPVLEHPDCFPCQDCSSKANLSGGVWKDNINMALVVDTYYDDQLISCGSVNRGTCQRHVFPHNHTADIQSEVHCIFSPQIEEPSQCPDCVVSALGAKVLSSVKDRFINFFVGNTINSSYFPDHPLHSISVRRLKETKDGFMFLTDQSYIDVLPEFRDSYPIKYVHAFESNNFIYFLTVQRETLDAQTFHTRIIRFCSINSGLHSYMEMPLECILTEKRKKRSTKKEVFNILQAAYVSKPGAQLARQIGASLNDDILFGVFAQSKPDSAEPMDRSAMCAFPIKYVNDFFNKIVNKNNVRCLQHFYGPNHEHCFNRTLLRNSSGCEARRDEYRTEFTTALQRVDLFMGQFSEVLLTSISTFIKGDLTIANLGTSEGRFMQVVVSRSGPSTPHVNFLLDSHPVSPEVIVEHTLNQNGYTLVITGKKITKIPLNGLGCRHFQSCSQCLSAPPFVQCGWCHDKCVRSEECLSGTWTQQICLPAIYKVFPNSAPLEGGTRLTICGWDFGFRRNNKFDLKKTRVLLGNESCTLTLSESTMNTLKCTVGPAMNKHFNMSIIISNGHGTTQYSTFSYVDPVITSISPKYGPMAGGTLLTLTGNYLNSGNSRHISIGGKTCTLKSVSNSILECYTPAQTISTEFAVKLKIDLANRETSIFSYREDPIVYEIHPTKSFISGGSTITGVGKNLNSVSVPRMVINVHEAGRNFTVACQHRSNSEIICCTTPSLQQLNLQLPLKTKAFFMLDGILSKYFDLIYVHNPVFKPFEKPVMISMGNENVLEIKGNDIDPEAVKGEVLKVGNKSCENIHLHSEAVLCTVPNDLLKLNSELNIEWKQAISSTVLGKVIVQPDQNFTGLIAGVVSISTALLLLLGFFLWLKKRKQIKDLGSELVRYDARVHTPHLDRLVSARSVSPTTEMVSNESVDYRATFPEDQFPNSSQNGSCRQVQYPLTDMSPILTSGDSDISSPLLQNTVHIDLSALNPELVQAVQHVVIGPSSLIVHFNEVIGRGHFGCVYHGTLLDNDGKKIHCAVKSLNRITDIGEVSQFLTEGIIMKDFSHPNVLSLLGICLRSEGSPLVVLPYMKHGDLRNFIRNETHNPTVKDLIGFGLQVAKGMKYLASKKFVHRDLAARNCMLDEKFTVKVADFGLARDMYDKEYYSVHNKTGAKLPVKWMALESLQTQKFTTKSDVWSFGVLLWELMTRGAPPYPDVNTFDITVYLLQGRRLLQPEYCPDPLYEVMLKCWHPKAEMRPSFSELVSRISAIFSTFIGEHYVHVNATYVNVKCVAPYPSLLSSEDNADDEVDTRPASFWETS
PKCβI, sequence (P05771 whole entry): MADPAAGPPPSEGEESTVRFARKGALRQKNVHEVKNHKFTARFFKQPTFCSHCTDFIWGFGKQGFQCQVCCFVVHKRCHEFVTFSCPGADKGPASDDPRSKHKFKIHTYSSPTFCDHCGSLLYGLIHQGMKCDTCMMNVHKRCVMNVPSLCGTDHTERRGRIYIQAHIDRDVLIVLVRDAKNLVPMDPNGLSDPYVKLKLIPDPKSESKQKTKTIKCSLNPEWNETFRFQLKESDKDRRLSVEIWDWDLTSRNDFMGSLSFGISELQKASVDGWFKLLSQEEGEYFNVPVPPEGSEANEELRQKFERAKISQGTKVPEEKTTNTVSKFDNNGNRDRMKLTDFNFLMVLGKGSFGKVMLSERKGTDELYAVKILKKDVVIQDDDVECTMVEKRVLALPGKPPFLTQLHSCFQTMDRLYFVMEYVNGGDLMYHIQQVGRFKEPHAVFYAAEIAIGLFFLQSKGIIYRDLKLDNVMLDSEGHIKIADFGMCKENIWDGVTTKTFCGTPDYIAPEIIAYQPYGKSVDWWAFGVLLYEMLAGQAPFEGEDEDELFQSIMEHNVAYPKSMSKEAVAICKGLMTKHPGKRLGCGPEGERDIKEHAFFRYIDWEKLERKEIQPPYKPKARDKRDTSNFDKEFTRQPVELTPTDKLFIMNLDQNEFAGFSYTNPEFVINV

Structure (SMILES): CN(C)c1cccc2c(S(=O)(=O)NCCCN3CCN(CCCNC(=O)OC(C)(C)C)CC3)cccc12 [COB223, tert-Butyl 3-(4-(3-(5-(dimethylamino)naphthalene-1-sulfonamido)propyl)piperazin-1-yl) propylcarbamate]
- kinase inhibition (MEK1): None of them was inhibited
- cytotoxic concentrations (3T3 cells): > 50 µM
- activation of p38 MAP kinase phosphorylation by VEGF or serum [1]: unaffected
- kinase inhibition (PKCβI): None of them was inhibited
- kinase inhibition (Met): None of them was inhibited
- concentrations inhibiting thymidine incorporation (HUVEC cells [2]): above 5 μM
- kinase inhibition (ERK2): None of them was inhibited
- cytotoxic concentrations (LLC/2 cells): > 50 µM
- kinase inhibition (PKC ζ): None of them was inhibited
- tumors with necrotic areas larger than 15% of their surface (LLC/2 tumor; COB223-treated tumors (untreated 20%)): 60%
- density of the microvessels (CD31) (LLC/2 tumor; [5]): significant decrease
- size (luminal surface) of the microvessels (CD31) (LLC/2 tumor; [5]): significant decrease
- number of phospho-ERK1/2 and phospho-histone H3 positive cells (LLC/2 tumor; tumor sections): significantly decreased
- IC50 (3T3-GFP cells): 25 µM
- binding of 125I-VEGF-A121 to HUVEC cells (HUVEC cells [3]): unaffected
- tolerance, adverse effects [4]: no adverse effect was observed
- concentrations inhibiting thymidine incorporation (HMVECd cells): above 5 μM
- activation of src phosphorylation by VEGF (src phosphorylation): unaffected
